We go through twelve compounds from publication PMC9694334, “Synthesis and Biological Evaluation of a Fused Structure of Indolizine and Pyrrolo[1,2-c]pyrimidine: Identification of Its Potent Anticancer Activity against Liver Cancer Cells” (Pharmaceuticals, 2022).

One test has as its system HaCaT cells. The test is described as follows: Cell viability assay (MTS) in HaCaT cells. Particulars: Homo sapiens, mean, n = 5. The class given is cell-based, human. The procedure: (§1) HepG2, Huh7, H1299, HT29, AGS and A549 cells were purchased from the Korean Cell Line Bank (Seoul, Korea) and HaCaT cells were obtained from Prof. Sohee Kwon (Yonsei University, Korea). Liver cancer cells (HepG2), human keratinocyte cells (HaCaT), and lung cancer cells (A549) were grown in DMEM high-glucose medium, liver cancer cells (Huh7) and non-small cell lung cancer cells (H1299) were grown in RPMI 1640, and gastric cancer cells (AGS) were grown in Coon’s modified F12 medium. All media were supplemented with 10% FBS, 100 Units/mL penicillin, and 100 μg/mL streptomycin. All cells were incubated at 37 °C, 5% CO2 and 95% humidity.
(§2) Cell viability assay was conducted using Cell Titer 96® AQueous One Solution Cell proliferation Assay kit (Promega, Madison, WI, USA). Five cancer cells and HaCaT cells were plated in 96-well microplates with growth medium for 24 h. When cell confluency reached ~30%, cells were treated with DMSO (vehicle) and test compounds. The medium and test compounds were replaced every 24 h. To measure cell viability, the cells were incubated with MTS solution for 1 h. The absorbance was measured by using Infinite M200 microplate reader (Tecan, Männedorf, Switzerland) at 490 nm.
(§3) Figure 2 Effect of 5r on cell viability in HepG2, Huh7, AGS, H1299, A549, HaCaT, NIH3T3, and HEK293T cells. (A–H) HepG2, Huh7, AGS, H1299, A549, HaCaT, NIH3T3, and HEK293T cells were cultured with 5r at the indicated concentrations for 72 h, and medium was replaced every 24 h with freshly added 5r. Cell viability was measured by MTS analysis (mean ± S.D., n = 5). * p < 0.05, ** p < 0.01, *** p < 0.001.

The test system of a further test is Huh7 cells. The test is described as follows: Cell viability assay (MTS) in Huh7 cells. The following applies: Homo sapiens, Huh-7, mean, n = 5, 72 h for 5r (Figure 2). The class given is cell-based. As to the method: as §1, §2, §3
For another test, the system named is HepG2 cells. The test is described as follows: Cell viability assay (MTS) in HepG2 cells. It counts as cell-based. The following applies: Homo sapiens, MTS, mean, n = 5, 72 h for 5r (Figure 2). As to the method: as §1, §2, §3

For the compound `COc1cc(O)c(-c2nc3c(c(C#N)c4ccccn43)c3cccn23)cc1OC` [Compound 5aa, 5-(2-Hydroxy-4,5-dimethoxyphenyl)pyrrolo[1′,2′:1,6]pyrimido[5,4-b]indolizine-12-carbonitrile], the figures for the IC50 with HaCaT cells, in the test with Huh7 cells and in the test with HepG2 cells were 2.21 µM, 0.87 µM and 1.17 µM, respectively.

Regarding `N#Cc1c2c3cccn3c(-c3cc(Cl)ccc3O)nc2n2ccccc12` [Compound 5ab, 5-(5-Chloro-2-hydroxyphenyl)pyrrolo[1′,2′:1,6]pyrimido[5,4-b]indolizine-12-carbonitrile], the IC50 – broadly, the concentration that inhibits the measured activity by half – came out at 2.3 µM with HaCaT cells, 0.71 µM in the test with Huh7 cells and 0.84 µM with HepG2 cells.

On to `N#Cc1c2c3cccn3c(-c3cccnc3)nc2n2ccccc12` [Compound 5o, 5-(Pyridin-3-yl)pyrrolo[1′,2′:1,6]pyrimido[5,4-b]indolizine-12-carbonitrile], for which the figures for the IC50 in the test on HaCaT cells, with Huh7 cells and in the test with HepG2 cells were 3.98 µM, 1.47 µM and 2 µM, respectively.

Turning to `COc1ccccc1-c1nc2c(c(C#N)c3ccccn32)c2cccn12` [Compound 5p, 5-(2-Methoxyphenyl)pyrrolo[1′,2′:1,6]pyrimido[5,4-b]indolizine-12-carbonitrile], the IC50 in the test with HaCaT cells turned out to be 16.2 µM; with Huh7 cells, 2.25 µM; in the test on HepG2 cells, 3.42 µM.

Take `COc1cccc(-c2nc3c(c(C#N)c4ccccn43)c3cccn23)c1` [Compound 5q, 5-(3-Methoxyphenyl)pyrrolo[1′,2′:1,6]pyrimido[5,4-b]indolizine-12-carbonitrile]: the IC50 in the test on HaCaT cells was 8.3 µM; in the test on Huh7 cells, 1.45 µM; in the test with HepG2 cells, 1.31 µM.

Take `N#Cc1c2c3cccn3c(-c3cccc(O)c3)nc2n2ccccc12` [Compound 5s, 5-(3-Hydroxyphenyl)pyrrolo[1′,2′:1,6]pyrimido[5,4-b]indolizine-12-carbonitrile]: the results for the IC50 in the test on HaCaT cells, with Huh7 cells and with HepG2 cells were 8.49 µM, 4.02 µM and 2.94 µM, respectively.

`N#Cc1c2c3cccn3c(-c3ccccc3F)nc2n2ccccc12` [Compound 5t, 5-(2-Fluorophenyl)pyrrolo[1′,2′:1,6]pyrimido[5,4-b]indolizine-12-carbonitrile]: the results for the IC50 in the test on HaCaT cells, in the test on Huh7 cells and in the test with HepG2 cells were 6.78 µM, 1.92 µM and 1.58 µM, respectively.

Turning to `N#Cc1c2c3cccn3c(-c3ccccc3Cl)nc2n2ccccc12` [Compound 5u, 5-(2-Chlorophenyl)pyrrolo[1′,2′:1,6]pyrimido[5,4-b]indolizine-12-carbonitrile], the figures for the IC50 in the test with HaCaT cells, in the test with Huh7 cells and in the test on HepG2 cells were 11.5 µM, 3.95 µM and 2.1 µM, respectively.

As for `N#Cc1c2c3cccn3c(-c3cccc(Cl)c3)nc2n2ccccc12` [Compound 5v, 5-(3-Chlorophenyl)pyrrolo[1′,2′:1,6]pyrimido[5,4-b]indolizine-12-carbonitrile], the IC50 in the test on HaCaT cells came out at 15.3 µM; in the test on Huh7 cells it was 1.33 µM; in the test on HepG2 cells it was 1.48 µM.

Take `N#Cc1c2c3cccn3c(-c3ccccc3Br)nc2n2ccccc12` [Compound 5w, 5-(2-Bromophenyl)pyrrolo[1′,2′:1,6]pyrimido[5,4-b]indolizine-12-carbonitrile]: the IC50 in the test on HaCaT cells is 9.53 µM; in the test with Huh7 cells, 2.72 µM; in the test with HepG2 cells it was 1.75 µM.

Take `N#Cc1c2c3cccn3c(-c3ncc[nH]3)nc2n2ccccc12` [Compound 5x, 5-(1H-Imidazol-2-yl)pyrrolo[1′,2′:1,6]pyrimido[5,4-b]indolizine-12-carbonitrile]: the IC50 in the test on HaCaT cells worked out at 24.1 µM; with Huh7 cells it was 7.85 µM; in the test on HepG2 cells it was 3.52 µM.

With `COc1ccc(O)c(-c2nc3c(c(C#N)c4ccccn43)c3cccn23)c1` [Compound 5y, 5-(2-Hydroxy-5-methoxyphenyl)pyrrolo[1′,2′:1,6]pyrimido[5,4-b]indolizine-12-carbonitrile], the figures for the IC50 in the test on HaCaT cells, in the test with Huh7 cells and in the test with HepG2 cells were 2.25 µM, 0.64 µM and 0.79 µM, respectively.
